Reference: patent US12668599B2, “Heterobifunctional compounds and methods of treating disease” (Halda Therapeutics OpCo, Inc., priority 2023, dated 2026)

What was measured:
VCaP cells = assay: Cellular growth inhibition assay for VCaP cells (CellTiter-Glo 2.0, 72 hours); assay type: cell-based, human; details: for GI50: CellTiter-Glo 2.0; for Ratio of GI50's: GI50 of the top compound in the pair divided by GI50 of the lower compound
[1] = test system: T-Rex 293 cell line SC3 cells lacking increased expression of androgen receptor protein; assay: Cellular growth inhibition, T-Rex 293 SC3 cells without doxycycline (CellTiter-Glo 2.0, 72 hours); assay type: cell-based; details: T-Rex 293 SC3 cells not exposed to doxycycline (no increased androgen receptor expression)
[2] = test system: T-Rex 293 cell line SC3 cells having increased expression of androgen receptor protein due to exposure to doxycycline; assay: Cellular growth inhibition, T-Rex 293 SC3 cells with doxycycline-induced androgen receptor (CellTiter-Glo 2.0, 72 hours); assay type: cell-based; details: for GI50: T-Rex 293 SC3 cells with 10 ng/ml doxycycline (increased androgen receptor expression), 72 hours, CellTiter-Glo 2.0; for Ratio of GI50's: GI50 of the top compound in the pair divided by GI50 of the lower compound, T-Rex 293 SC3 cells with doxycycline-induced androgen receptor

| SMILES | GI50 (VCaP cells; Homo sapiens, VCaP, 72 h) [nM] | Ratio of GI50's (VCaP cells) | GI50 (VCaP cells; 72 hours) [nM] | GI50 ([1]; 72 h) [nM] | GI50 [2] [nM] | Ratio of GI50's [2] | GI50 [1] [nM] |
| --- | --- | --- | --- | --- | --- | --- | --- |
| COc1cc(O[C@H]2CC[C@H](NC(=O)c3ccc(N4CCC5(CC4)CC(Cc4ccc(C6=N[C@@H](Cc7ncco7)c7nnc(C)n7-c7sc(C)c(C)c76)cc4)C5)nn3)CC2)ccc1C#N [Compound I-25, N-[4-(4-cyano-3-methoxy-phenoxy)cyclohexyl]-6-[2-[[4-[(9S)-4,5,13-trimethyl-9-(oxazol-2-ylmethyl)-3-thia-1,8,11,12-tetrazatricyclo[8.3.0.0^2,6]trideca-2 (6),4,7,10,12-pentaen-7-yl]phenyl]methyl]-7-azaspiro[3.5]nonan-7-yl]pyridazine-3-carboxamide] | < 500 | 1 | – | < 500 | < 500 | 1 | – |
| COc1cc(O[C@H]2CC[C@H](NC(=O)c3ccc(N4CCC5(CCC(Oc6ccc(C7=N[C@@H](C)c8nnc(C)n8-c8sc(C)c(C)c87)cc6)C5)C4)nn3)CC2)ccc1C#N (stereo partly shown) [Compound I-50] | < 500 | – | – | < 500 | < 500 | – | – |
| COc1cc(O[C@H]2CC[C@H](NC(=O)c3ccc(N4CCC5(CCC(c6ccc(C7=N[C@@H](C)c8nnc(C)n8-c8sc(C)c(C)c87)cc6C)CC5)C4)nn3)CC2)ccc1C#N (stereo partly shown) [Compound I-60] | < 500 | – | – | < 500 | < 500 | – | – |
| COc1cc(O[C@H]2CC[C@H](NC(=O)c3ccc(N4CCC5(CCN(c6ccc(C7=N[C@@H](C)c8nnc(C)n8-c8sc(C)c(C)c87)cc6)CC5)C4)nn3)CC2)ccc1C#N [Compound I-71] | – | – | < 500 | – | < 500 | – | < 500 |
| COc1cc(O[C@H]2CC[C@H](NC(=O)c3ccc(N4CCC5(CCN(c6ccc(C7=N[C@@H](C)c8nnc(C)n8-c8sc(C)c(C)c87)cc6)CC5(F)F)C4)nn3)CC2)ccc1C#N (stereo partly shown) [Compound I-113] | < 500 | – | – | < 500 | < 500 | – | – |
| COc1cc(O[C@H]2CC[C@H](NC(=O)c3ccc(N4CCC5(CCN(c6ccc(C7=N[C@@H](C)c8nnc(C)n8-c8sc(C)c(C)c87)cc6)CC5)C4)cc3)CC2)ccc1C#N [Compound I-55] | < 500 | – | – | < 500 | < 500 | – | – |
| COc1cc(O[C@H]2CC[C@H](NC(=O)c3ccc(N4CC5(CCC5)C5(CCN(c6ccc(C7=N[C@@H](C)c8nnc(C)n8-c8sc(C)c(C)c87)cc6)CC5)C4)nn3)CC2)ccc1C#N [Compound I-114] | < 500 | – | – | < 500 | < 500 | – | – |
| COCC[C@@H]1N=C(c2ccc(C#CC3CC4(C3)CN(c3ccc(C(=O)NC5CCC(Oc6ccc(C#N)c(OC)c6)CC5)nn3)C4)cc2)c2c(sc(C)c2C)-n2c(C)nnc21 (stereo partly drawn) [Compound I-30, N-[4-(4-cyano-3-methoxy-phenoxy)cyclohexyl]-6-[6-[2-[4-[(9S)-9-(2-methoxyethyl)-4,5,13-trimethyl-3-thia-1,8,11,12-tetrazatricyclo[8.3.0.0^2,6]trideca-2 (6),4,7,10,12-pentaen-7-yl]phenyl]ethynyl]-2-azaspiro[3.3]heptan-2-yl]pyridazine-3-carboxamide] | – | – | < 500 | – | < 500 | – | < 500 |
| COc1cc(O[C@H]2CC[C@H](NC(=O)c3ccc(N4CCC5(CCC(c6ccc(C7=N[C@@H](C)c8nnc(C)n8-c8sc(C)c(C)c87)cc6)C5)C4)nn3)CC2)ccc1C#N (stereo partly shown) [Compound I-95] | – | – | < 500 | – | < 500 | – | < 500 |
| COc1cc(O[C@H]2CC[C@H](NC(=O)c3ccc(N4CCC5(CCC(c6ccc(C7=N[C@@H](C)c8nnc(C)n8-c8sc(C)c(C)c87)cc6)CC5)C4)nn3)CC2)ccc1C#N (stereo partly drawn) [Compound I-19, N-[(1r,4r)-4-(4-cyano-3-methoxy-phenoxy)cyclohexyl]-6-[8-[4-[(9S)-4,5,9,13-tetramethyl-3-thia-1,8,11,12-tetrazatricyclo[8.3.0.0^2,6]trideca-2 (6),4,7,10,12-pentaen-7-yl]phenyl]-2-azaspiro[4.5]decan-2-yl]pyridazine-3-carboxamide] | < 500 | – | – | < 500 | < 500 | – | – |

The next lines start with results.

| GI50 (VCaP cells; Homo sapiens, VCaP, 72 h) [nM] | Ratio of GI50's (VCaP cells) | GI50 (VCaP cells; 72 hours) [nM] | SMILES | GI50 ([1]; 72 h) [nM] | GI50 [2] [nM] | Ratio of GI50's [2] | GI50 [1] [nM] |
| --- | --- | --- | --- | --- | --- | --- | --- |
| < 500 | – | – | COc1cc(O[C@H]2CC[C@H](NC(=O)c3ccc(N4CCC5(CCC(c6ccc(C7=N[C@@H](C)c8nnc(C)n8-c8sc(C)c(C)c87)cc6F)CC5)C4)nn3)CC2)ccc1C#N (single isomer, unassigned) [Compound I-56] | < 500 | < 500 | – | – |
| – | – | < 500 | COc1cc(O[C@H]2CC[C@H](NC(=O)c3ccc(N4CCC5(CCN(c6ccc(C7=N[C@@H](C)c8nnc(C)n8-c8sc(C)c(C)c87)cc6)CC5(F)F)C4)nn3)CC2)ccc1C#N (stereo partly shown) [Compound I-116] | – | < 500 | – | < 500 |
| 500 to 1500 | – | – | COc1cc(O[C@H]2CC[C@H](NC(=O)c3ccc(N4CCC5(CCC(c6ccc(C7=N[C@@H](C)c8nnc(C)n8-c8sc(C)c(C)c87)c(Cl)c6)CC5)C4)nn3)CC2)ccc1C#N (stereo partly shown) [Compound I-65] | > 3000 | < 500 | – | – |
| < 500 | – | – | COc1cc(O[C@H]2CC[C@H](NC(=O)c3ccc(N4CCC5(CCC(c6ccc(C7=N[C@@H](C)c8nnc(C)n8-c8sc(C)c(C)c87)cc6)CC5)C4)nc3)CC2)ccc1C#N (stereo partly shown) [Compound I-36] | < 500 | < 500 | – | – |
| < 500 | – | – | COc1cc(O[C@H]2CC[C@H](NC(=O)c3ccc(N4C[C@]5(F)CN(c6ccc(C7=N[C@@H](C)c8nnc(C)n8-c8sc(C)c(C)c87)cc6)C[C@]5(F)C4)nn3)CC2)ccc1C#N [Compound I-91] | < 500 | < 500 | – | – |
| < 500 | – | – | COc1cc(O[C@H]2CC[C@H](NC(=O)c3ccc(N4CC(F)(F)C5(CCN(c6ccc(C7=N[C@@H](C)c8nnc(C)n8-c8sc(C)c(C)c87)cc6)CC5)C4)nn3)CC2)ccc1C#N [Compound I-107, N-[4-(4-cyano-3-methoxy-phenoxy)cyclohexyl]-6-[4,4-difluoro-8-[4-[(9S)-4,5,9,13-tetramethyl-3-thia-1,8,11,12-tetrazatricyclo[8.3.0.0^2,6]trideca-2 (6),4,7,10,12-pentaen-7-yl]phenyl]-2,8-diazaspiro[4.5]decan-2-yl]pyridazine-3-carboxamide] | < 500 | < 500 | – | – |
| < 500 | – | – | COc1cc(O[C@H]2CC[C@H](NC(=O)c3ccc(-n4cc5c(c4)CN(c4ccc(C6=N[C@@H](C)c7nnc(C)n7-c7sc(C)c(C)c76)cc4)C5)nn3)CC2)ccc1C#N [Compound I-108] | < 500 | < 500 | – | – |
| – | – | > 3000 | COc1cc(O[C@H]2CC[C@H](NC(=O)c3ccc(N4CCC5(CCN(c6ccc(C7=NC(Cc8ncco8)c8nnc(C)n8-c8sc(C)c(C)c87)c(C(F)(F)F)c6)CC5)C4)nn3)CC2)ccc1C#N (stereo partly shown) [Compound I-136] | > 3000 | < 500 | – | – |
| < 500 | 1 | – | COc1cc(O[C@H]2CC[C@H](NC(=O)c3ccc(N4CCC5(CC4)CC(Oc4ccc(C6=N[C@@H](Cc7ncco7)c7nnc(C)n7-c7sc(C)c(C)c76)cc4)C5)nn3)CC2)ccc1C#N [Compound I-83, N-[4-(4-cyano-3-methoxy-phenoxy)cyclohexyl]-6-[2-[4-[(9S)-4,5,13-trimethyl-9-(oxazol-2-ylmethyl)-3-thia-1,8,11,12-tetrazatricyclo[8.3.0.0^2,6]trideca-2 (6),4,7,10,12-pentaen-7-yl]phenoxy]-7-azaspiro[3.5]nonan-7-yl]pyridazine-3-carboxamide] | < 500 | < 500 | 1 | – |
